Results: ChEMBL document CHEMBL5365482, “Rational Design of Sulfonyl-γ-AApeptides as Highly Potent HIV-1 Fusion Inhibitors with Broad-Spectrum Activity” (J Med Chem, 2023)
pIC50, pKd: −log10 of the molar value.

Tests used:
[1] = system: Human immunodeficiency virus 1; test: Antiviral activity against HIV1 IIIB infected in human MT2 cells assessed as inhibition of viral growth incubated for 30 mins by ELISA assay; assay type: functional, organism-based; details: Human immunodeficiency virus 1, IIIB, MT2, 0.5 h
[2] = Cytotoxicity against human MT2 cells assessed as inhibition of cell growth measured after 3 days by CCK8 assay; assay type: toxicity, cell-based; details: time 3 day
[3] = Selectivity index, ratio of CC50 for human MT2 cells to IC50 for HIV1 IIIB infected in human MT2 cells; assay type: toxicity, cell-based; details: read-out: Ratio CC50/IC50
[4] = Stability of compound in ammonium bicarbonate buffer at pH 7.8 at 0.1 mg/ml incubated for 24 hrs under at 37 degreeC in presence of pronase by HPLC analysis; assay type: physicochemical; details: pH 7.8, 24 h
[5] = system: Human immunodeficiency virus 1; test: Antiviral activity against HIV1 CRF02_AG Clone 278 clinical isolate infected in human TZM-bl cells assessed as inhibition of viral growth incubated for 48 hrs by luciferase based analysis; assay type: functional, organism-based; details: Human immunodeficiency virus 1, CRF02_AG Clone 278, TZM-bl
[6] = system: Human immunodeficiency virus 1; test: Antiviral activity against HIV1 QD435.100MENV.E1 clinical isolate infected in human TZM-bl cells assessed as inhibition of viral growth incubated for 48 hrs by luciferase based analysis; assay type: functional, organism-based; details: Human immunodeficiency virus 1, QD435.100MENV.E1, TZM-bl
[7] = system: Human immunodeficiency virus 1; test: Antiviral activity against HIV1 CRF02_AG Clone 33 clinical isolate infected in human TZM-bl cells assessed as inhibition of viral growth incubated for 48 hrs by luciferase based analysis; assay type: functional, organism-based; details: Human immunodeficiency virus 1, CRF02_AG Clone 33, TZM-bl
[8] = system: Human immunodeficiency virus 1; test: Antiviral activity against HIV1 Q259env.w6 clinical isolate infected in human TZM-bl cells assessed as inhibition of viral growth incubated for 48 hrs by luciferase based analysis; assay type: functional, organism-based; details: Human immunodeficiency virus 1, Q259env.w6, TZM-bl
[9] = system: Human immunodeficiency virus 1; test: Antiviral activity against HIV1 QA013.701.ENV.M12 clinical isolate infected in human TZM-bl cells assessed as inhibition of viral growth incubated for 48 hrs by luciferase based analysis; assay type: functional, organism-based; details: Human immunodeficiency virus 1, QA013.701.ENV.M12, TZM-bl
[10] = system: Human immunodeficiency virus 1; test: Antiviral activity against HIV1 X4 […] MN/H9 (84US_MNp) clinical isolate infected in human MT2 cells assessed as inhibition of viral growth incubated for 30 mins by ELISA assay; assay type: functional, organism-based; details: Human immunodeficiency virus 1, X4 […] MN/H9 (84US_MNp), MT2, 0.5 h
[11] = system: Human immunodeficiency virus 1; test: Antiviral activity against HIV1 R5 […] US4/GS 007 (91US_4) clinical isolate infected in human CEMx174 5.25M7 cells assessed as inhibition of viral growth incubated for 30 mins by ELISA assay; assay type: functional, organism-based; details: Human immunodeficiency virus 1, R5 […] US4/GS 007 (91US_4), CEMx174 5.25M7, 0.5 h
[12] = Apparent permeability of the compound across gastrointestinal tract in PBS buffer at pH 5 at 50 uM by PAMPA analysis; assay type: ADME, tissue-based; details: for Papp at 50 µM: PAMPA, pH 5
[13] = Apparent permeability of the compound across gastrointestinal tract in PBS buffer at pH 6.2 at 50 uM by PAMPA analysis; assay type: ADME, tissue-based; details: for Papp at 50 µM: PAMPA, pH 6.2
[14] = Apparent permeability of the compound across gastrointestinal tract in PBS buffer at pH 7.4 at 50 uM by PAMPA analysis; assay type: ADME, tissue-based
[15] = Apparent permeability of the compound across blood brain barrier in PBS buffer at pH 7.4 at 25 uM by PAMPA analysis; assay type: ADME, tissue-based
in vitro = details: PAMPA, pH 7.4
Description: Apparent permeability of the compound across blood brain barrier in PBS buffer at pH 7.4 at 250 uM by PAMPA analysis

[16] = Apparent permeability of the compound across gastrointestinal tract in PBS buffer at pH 7.4 at 200 uM by PAMPA analysis; assay type: ADME, tissue-based
[17] = Apparent permeability of the compound across gastrointestinal tract in PBS buffer at pH 5 at 200 uM by PAMPA analysis; assay type: ADME, tissue-based
[18] = Apparent permeability of the compound across gastrointestinal tract in PBS buffer at pH 6.2 at 200 uM by PAMPA analysis; assay type: ADME, tissue-based
[19] = molecular target: T1, Envelope glycoprotein gp160 (Human immunodeficiency virus 1, UniProt Q72502); test: Binding affinity to HIV1 GP41 using GP41 NHR derived N36 peptide assessed as binding constant by fluorescence polarization assay
T1 sequence (Q72502 whole entry): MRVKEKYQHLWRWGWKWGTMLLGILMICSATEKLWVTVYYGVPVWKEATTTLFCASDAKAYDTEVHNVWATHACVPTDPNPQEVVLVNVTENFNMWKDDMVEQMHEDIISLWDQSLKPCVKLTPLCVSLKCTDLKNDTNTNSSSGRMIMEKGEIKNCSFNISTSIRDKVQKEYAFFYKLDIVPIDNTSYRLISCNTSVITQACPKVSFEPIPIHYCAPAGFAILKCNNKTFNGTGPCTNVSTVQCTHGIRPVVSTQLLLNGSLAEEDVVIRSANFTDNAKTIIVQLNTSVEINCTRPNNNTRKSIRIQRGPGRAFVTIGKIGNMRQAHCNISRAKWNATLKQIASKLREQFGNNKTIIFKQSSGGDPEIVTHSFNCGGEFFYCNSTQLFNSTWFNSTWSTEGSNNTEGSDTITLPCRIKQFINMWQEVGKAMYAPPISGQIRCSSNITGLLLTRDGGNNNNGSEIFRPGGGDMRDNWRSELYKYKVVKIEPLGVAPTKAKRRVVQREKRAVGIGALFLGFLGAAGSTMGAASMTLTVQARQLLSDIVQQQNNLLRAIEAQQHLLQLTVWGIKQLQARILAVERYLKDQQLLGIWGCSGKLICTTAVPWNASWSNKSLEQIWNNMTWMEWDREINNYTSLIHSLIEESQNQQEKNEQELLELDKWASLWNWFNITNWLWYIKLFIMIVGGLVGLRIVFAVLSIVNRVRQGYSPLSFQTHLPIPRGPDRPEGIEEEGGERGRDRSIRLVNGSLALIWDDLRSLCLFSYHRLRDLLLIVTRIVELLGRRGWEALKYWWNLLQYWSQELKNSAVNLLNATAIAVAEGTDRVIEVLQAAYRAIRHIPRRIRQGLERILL

[20] = molecular target: T1, Envelope glycoprotein gp160; test: Binding affinity to HIV1 GP41 using GP41 NHR derived N36 peptide assessed as binding constant in presence of C34 by fluorescence polarization assay
[21] = Apparent permeability of the compound across blood brain barrier in PBS buffer at pH 7.4 at 15 uM by PAMPA analysis; assay type: ADME, tissue-based

Row | Papp at 50 µM [14] [×10⁻⁶ cm/s] | Molecule | pIC50 [1] | CC50 at 72 h [2] [nM] | selectivity ratio [3] | pIC50 [5] | pIC50 [6] | pIC50 [7] | pIC50 [8] | pIC50 [9] | pIC50 [10] | pIC50 [11] | also measured
1 |  | CC[C@@H](C)[C@@H](CN(CC(=O)N[C@@H](CCC(=O)O)CN(CC(=O)N[C@@H](CC(C)C)CN(CC(N)=O)S(=O)(=O)CC(C)C)S(=O)(=O)c1ccc(C(=O)O)cc1)S(=O)(=O)CC(C)C)NC(=O)CN(C[C@H](CCCCN)NC(=O)CN(C[C@H](Cc1ccc(O)cc1)NC(=O)CN(C[C@H](CCC(=O)O)NC(=O)CN(C[C@@H](NC(=O)CN(C[C@H](CCCCN)NC(=O)CN(C[C@H](Cc1c[nH]c2ccccc12)NC(=O)CN(C[C@H](CCC(=O)O)NC(=O)CN(C[C@H](Cc1c[nH]c2ccccc12)NC(=O)CN(C[C@H](CCSC)NC(C)=O)S(=O)(=O)CC(C)C)S(=O)(=O)CC(C)C)S(=O)(=O)c1ccc(C(=O)O)cc1)S(=O)(=O)CC(C)C)S(=O)(=O)CCN)[C@H](C)CC)S(=O)(=O)CC(C)C)S(=O)(=O)c1ccc(C(=O)O)cc1)S(=O)(=O)CC(C)C)S(=O)(=O)CCN | 4.52 | > 40000 | > 1.3 |  |  |  |  |  |  |  | Stability [4]: Stable
2 | 390 | CCCCCCCCCCCCCCCCCC(=O)NCCCC[C@H](NC(=O)CN(C[C@H](CC(C)C)NC(=O)CN(C[C@H](CCC(=O)O)NC(=O)CN(C[C@@H](NC(=O)CN(C[C@H](CCCCN)NC(=O)CN(C[C@H](Cc1ccc(O)cc1)NC(=O)CN(C[C@H](CCC(=O)O)NC(=O)CN(C[C@@H](NC(=O)CN(C[C@H](CCCCN)NC(=O)CN(C[C@H](Cc1c[nH]c2ccccc12)NC(=O)CN(C[C@H](CCC(=O)O)NC(=O)CN(C[C@H](Cc1c[nH]c2ccccc12)NC(=O)CN(C[C@H](CCSC)NC(C)=O)S(=O)(=O)CC(C)C)S(=O)(=O)CC(C)C)S(=O)(=O)c1ccc(C(=O)O)cc1)S(=O)(=O)CC(C)C)S(=O)(=O)CCN)[C@H](C)CC)S(=O)(=O)CC(C)C)S(=O)(=O)c1ccc(C(=O)O)cc1)S(=O)(=O)CC(C)C)S(=O)(=O)CCN)[C@H](C)CC)S(=O)(=O)CC(C)C)S(=O)(=O)c1ccc(C(=O)O)cc1)S(=O)(=O)CC(C)C)C(N)=O | 6.01 | > 40000 | > 41 | 7.05 | 7.07 | 6.91 | 6.81 | 7.33 | 7.09 | 7.06 | Papp at 50 µM [12]: 602 ×10⁻⁶ cm/s; Papp at 50 µM [13]: 617 ×10⁻⁶ cm/s; Papp at 25 µM [15]: 234 ×10⁻⁶ cm/s
3 |  | Cn1c(=O)c2[nH]cnc2n(C)c1=O.O [THEOPHYLLINE] |  |  |  |  |  |  |  |  |  |  | Papp at 250 µM (in vitro): < 10 ×10⁻⁶ cm/s
4 | 152 | NC(=O)N1c2ccccc2C=Cc2ccccc21 [CARBAMAZEPINE] |  |  |  |  |  |  |  |  |  |  | Papp ([12]; pampa, pH 5, 50 µM): 134.41 10^-6 cm/s; Papp ([13]; pampa, pH 6.2, 50 µM): 141.28 10^-6 cm/s; Papp at 200 µM [16]: < 1 ×10⁻⁶ cm/s
5 |  | Cc1cc(=O)n(-c2ccccc2)n1C [ANTIPYRINE] |  |  |  |  |  |  |  |  |  |  | Papp at 200 µM [17]: < 1 ×10⁻⁶ cm/s; Papp at 200 µM [18]: < 1 ×10⁻⁶ cm/s
6 | 520 | CCCCCCCCCCCCCCCCCC(=O)NCCCC[C@H](NC(=O)CN(C[C@H](CC(C)C)NC(=O)CN(C[C@H](CCC(=O)O)NC(=O)CN(C[C@@H](NC(=O)CN(C[C@H](CCCCN)NC(=O)CN(C[C@H](Cc1ccc(O)cc1)NC(=O)CN(C[C@H](CCC(=O)O)NC(=O)CN(C[C@@H](NC(=O)CN(C[C@H](CCCCN)NC(=O)CN(C[C@H](Cc1c[nH]c2ccccc12)NC(=O)CN(C[C@H](CCC(=O)O)NC(=O)CN(C[C@H](Cc1c[nH]c2ccccc12)NC(=O)CN(C[C@H](CCSC)NC(C)=O)S(=O)(=O)c1ccc(OC)cc1)S(=O)(=O)CC(C)C)S(=O)(=O)c1ccc(C(=O)O)cc1)S(=O)(=O)CC(C)C)S(=O)(=O)CCN)[C@H](C)CC)S(=O)(=O)CC(C)C)S(=O)(=O)c1ccc(C(=O)O)cc1)S(=O)(=O)CC(C)C)S(=O)(=O)CCN)[C@H](C)CC)S(=O)(=O)CC(C)C)S(=O)(=O)c1ccc(C(=O)O)cc1)S(=O)(=O)CC(C)C)C(N)=O | 6.74 | 19300 | 106 | 7.22 | 7.07 | 7.19 | 7.07 | 7.21 | 6.03 | 7.05 | pKd [19]: 6.17; pKd [20]: < 4.34; Papp at 50 µM [12]: 610 ×10⁻⁶ cm/s; Papp at 50 µM [13]: 522 ×10⁻⁶ cm/s; Papp at 15 µM [21]: 256 ×10⁻⁶ cm/s
7 |  | CC[C@@H](C)[C@@H](CN(CC(=O)N[C@@H](CCC(=O)O)CN(CC(=O)N[C@@H](CC(C)C)CN(CC(N)=O)S(=O)(=O)CC(C)C)S(=O)(=O)c1ccc(C(=O)O)cc1)S(=O)(=O)CC(C)C)NC(=O)CN(C[C@H](CCCCN)NC(=O)CN(C[C@H](Cc1ccc(O)cc1)NC(=O)CN(C[C@H](CCC(=O)O)NC(=O)CN(C[C@@H](NC(=O)CN(C[C@H](CCCCN)NC(=O)CN(C[C@H](Cc1c[nH]c2ccccc12)NC(=O)CN(C[C@H](CCC(=O)O)NC(=O)CN(C[C@H](Cc1c[nH]c2ccccc12)NC(=O)CN(C[C@H](CCSC)NC(C)=O)S(=O)(=O)c1ccc(OC)cc1)S(=O)(=O)CC(C)C)S(=O)(=O)c1ccc(C(=O)O)cc1)S(=O)(=O)CC(C)C)S(=O)(=O)CCN)[C@H](C)CC)S(=O)(=O)CC(C)C)S(=O)(=O)c1ccc(C(=O)O)cc1)S(=O)(=O)CC(C)C)S(=O)(=O)CCN | 5.40 | > 40000 | > 10 |  |  |  |  |  |  |  | Stability [4]: Stable
8 |  | enfuvirtide |  |  |  | 7.55 | 7.14 | 7.55 | 7.29 | 8.19 | 8.52 | 7.80 | 
